# Laboratory results published in US12209087B2, “AKT1 modulators” (Alterome Therapeutics, Inc., priority 2022, dated 2025).
# Target: T1, full length AKT E17K (Homo sapiens, UniProt P31749, E17K)
# T1 construct: host or cells: HEK-293 (ATCC CRL-1573)
# Assay: NanoBRET Target Engagement (TE) Assay
# Format: cell-based
# Details: competitive displacement of tracer in cells, read-out: AKT1 E17K IC50
# Summary of the method: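 Compound and tracer incubated 2 h before luminescence at donor 450 nm and acceptor 600 nm, with extracellular signal inhibited. EC50 by sigmoidal variable-slope regression.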
# T1 sequence (P31749 whole entry E17K): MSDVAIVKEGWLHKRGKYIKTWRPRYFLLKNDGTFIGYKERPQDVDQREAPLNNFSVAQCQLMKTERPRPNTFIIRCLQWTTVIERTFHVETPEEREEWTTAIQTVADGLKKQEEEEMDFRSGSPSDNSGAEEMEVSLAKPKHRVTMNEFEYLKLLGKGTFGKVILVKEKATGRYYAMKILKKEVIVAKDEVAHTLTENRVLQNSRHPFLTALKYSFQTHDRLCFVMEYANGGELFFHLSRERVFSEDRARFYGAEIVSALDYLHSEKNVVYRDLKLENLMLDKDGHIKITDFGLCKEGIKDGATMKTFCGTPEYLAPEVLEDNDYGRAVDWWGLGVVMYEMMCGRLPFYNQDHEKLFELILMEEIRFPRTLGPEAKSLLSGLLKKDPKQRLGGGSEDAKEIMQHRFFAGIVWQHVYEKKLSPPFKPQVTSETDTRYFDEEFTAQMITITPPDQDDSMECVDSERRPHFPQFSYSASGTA
row,IC50 [nM],Compound
1,< 15,"CC(C)Oc1ccc2nc(-c3cccnc3N)n(-c3ccc(CN4CCC(Nc5ccnc(C#N)n5)CC4)cc3)c2n1 [Example 425, 4-((1-(4-(2-(2-Aminopyridin-3-yl)-5-isopropoxy-3H-imidazo[4,5-b]pyridin-3-yl)benzyl)piperidin-4-yl)amino)pyrimidine-2-carbonitrile]"
2,< 15,"COc1ccc(-c2ccc3nc(-c4nccnc4N)n(-c4ccc(CN5CCC(Nc6ccnc(C#N)n6)CC5)cc4)c3n2)cn1 [Example 636, 4-((1-(4-(2-(3-Aminopyrazin-2-yl)-5-(6-methoxypyridin-3-yl)-3H-imidazo[4,5-b]pyridin-3-yl)benzyl)piperidin-4-yl)amino)pyrimidine-2-carbonitrile]"
3,600 to 10000,"N#Cc1nccc(NC2CCN(Cc3ccc(-n4c(-c5cccnc5N)nc5ccc(-c6ccc(F)cc6C(N)=O)nc54)cc3)CC2)n1 [Example 524, 2-(2-(2-aminopyridin-3-yl)-3-(4-((4-((2-cyanopyrimidin-4-yl)amino)piperidin-1-yl)methyl)phenyl)-3H-imidazo[4,5-b]pyridin-5-yl)-5-fluorobenzamide]"
4,15 to 60,"Cc1ncn(-c2ccc3nc(-c4cccnc4N)n(-c4ccc(CN5CCC(Nc6ccnc(C#N)n6)CC5)cc4)c3n2)n1 [Example 589, 4-((1-(4-(2-(2-aminopyridin-3-yl)-5-(3-methyl-1H-1,2,4-triazol-1-yl)-3H-imidazo[4,5-b]pyridin-3-yl)benzyl)piperidin-4-yl)amino)pyrimidine-2-carbonitrile]"
5,< 15,"N#Cc1nccc(NC2CCN(Cc3ccc(-n4c(-c5cccnc5N)nc5ccc(C6COC6)nc54)cc3)CC2)n1 [Example 420, 4-((1-(4-(2-(2-Aminopyridin-3-yl)-5-(oxetan-3-yl)-3H-imidazo[4,5-h]pyridin-3-yl)benzyl)piperidin-4-yl)amino)pyrimidine-2-carbonitrile]"
6,15 to 60,"CNc1ccc2nc(-c3cccnc3N)n(-c3ccc(CN4CCC(Nc5ccnc(C#N)n5)CC4)cc3)c2n1 [Example 457, 4-((1-(4-(2-(2-Aminopyridin-3-yl)-5-(methylamino)-3H-imidazo[4,5-b]pyridin-3-yl)benzyl)piperidin-4-yl)amino)pyrimidine-2-carbonitrile]"
7,60 to 600,"N#Cc1ncc(C(=O)N2CCN(Cc3ccc(-n4c(-c5cccnc5N)nc5ccc(-c6ccccc6)nc54)cc3)CC2)s1 [Example 327, 5-(4-(4-(2-(2-Aminopyridin-3-yl)-5-phenyl-3H-imidazo[4,5-b]pyridin-3-yl)benzyl)piperazine-1-carbonyl)thiazole-2-carbonitrile]"
8,60 to 600,"CC1(Nc2ccnc(C#N)n2)CCN(Cc2ccc(-n3c(-c4cccnc4N)nc4cccnc43)cc2)CC1 [Example 392, 4-((1-(4-(2-(2-Aminopyridin-3-yl)-3H-imidazo[4,5-b]pyridin-3-yl)benzyl)-4-methylpiperidin-4-yl)amino)pyrimidine-2-carbonitrile]"
9,< 15,"N#Cc1nccc(N2CCN(Cc3ccc(-n4c(-c5cccnc5N)nc5ccc(C6=CCOCC6)nc54)cc3)CC2)n1 [Example 330, 4-(4-(4-(2-(2-Aminopyridin-3-yl)-5-(3,6-dihydro-2H-pyran-4-yl)-3H-imidazo[4,5-b]pyridin-3-yl)benzyl)piperazin-1-yl)pyrimidine-2-carbonitrile]"
10,< 15,"N#Cc1ccnc(-c2ccc3nc(-c4cccnc4N)n(-c4ccc(CN5CCC(Nc6ccnc(C#N)n6)CC5)cc4)c3n2)c1 [Example 548, 4-((1-(4-(2-(2-Aminopyridin-3-yl)-5-(4-cyanopyridin-2-yl)-3H-imidazo[4,5-b]pyridin-3-yl)benzyl)piperidin-4-yl)amino)pyrimidine-2-carbonitrile]"
11,< 15,"N#Cc1nccc(N2C[C@@H]3CN(Cc4ccc(-n5c(-c6cccnc6N)nc6ccc(-c7ccccc7)nc65)cc4)C[C@H]3C2)n1 [Example 367, 4-((3aS,6aS)-5-(4-(2-(2-aminopyridin-3-yl)-5-phenyl-3H-imidazo[4,5-b]pyridin-3-yl)benzyl)hexahydropyrrolo[3,4-c]pyrrol-2(1H)-yl)pyrimidine-2-carbonitrile]"
12,< 15,"Cn1nccc1-c1ccc2nc(-c3cccnc3N)n(-c3ccc(CN4CCC(Nc5ccnc(C#N)n5)CC4)cc3)c2n1 [Example 467, 4-((1-(4-(2-(2-Aminopyridin-3-yl)-5-(1-methyl-1H-pyrazol-5-yl)-3H-imidazo[4,5-b]pyridin-3-yl)benzyl)piperidin-4-yl)amino)pyrimidine-2-carbonitrile]"

row,Compound,IC50 [nM]
1,"N#Cc1nccc(N2CC3CCC(C2)N3Cc2ccc(-n3c(-c4cccnc4N)nc4ccc(-c5ccc(F)cc5)nc43)cc2)n1 [Example 448, 4-(8-(4-(2-(2-Aminopyridin-3-yl)-5-(4-fluorophenyl)-3H-imidazo[4,5-b]pyridin-3-yl)benzyl)-3,8-diazabicyclo[3.2.1]octan-3-yl)pyrimidine-2-carbonitrile]",15 to 60

# Same assay, conditions: competitive tracer displacement in living cells, read-out: AKT1 E17K IC50
row,IC50 [nM],Compound
1,600 to 10000,"N#Cc1cc(N2CCN(Cc3ccc(-n4c(-c5cccnc5N)nc5cccnc54)cc3)CC2)ccn1 [Example 13, 4-(4-(4-(2-(2-Aminopyridin-3-yl)-3H-imidazo[4,5-b]pyridin-3-yl)benzyl)piperazin-1-yl)picolinonitrile]"
2,< 15,"[2H]C([2H])([2H])N(c1ccnc(C#N)n1)C1CCN(Cc2ccc(-n3c(-c4cccnc4N)nc4ccc(-c5ccccc5)nc43)cc2)CC1 [Example 232, 4-((1-(4-(2-(2-Aminopyridin-3-yl)-5-phenyl-3H-imidazo[4,5-b]pyridin-3-yl)benzyl)piperidin-4-yl)(methyl-d3)amino)pyrimidine-2-carbonitrile]"
3,15 to 60,"[2H]C([2H])([2H])N(c1ncnc(C#N)n1)C1CCN(Cc2ccc(-n3c(-c4cccnc4N)nc4ccc(-c5ccccc5)nc43)cc2)CC1 [Example 233, 4-((1-(4-(2-(2-Aminopyridin-3-yl)-5-phenyl-3H-imidazo[4,5-b]pyridin-3-yl)benzyl)piperidin-4-yl)(methyl-d3)amino)-1,3,5-triazine-2-carbonitrile]"
4,< 15,"C[C@@H]1CN(Cc2ccc(-n3c(-c4cccnc4N)nc4ccc(-c5ccccc5)nc43)cc2)CCN1c1ncnc(C#N)n1 [Example 273, (R)-4-(4-(4-(2-(2-Aminopyridin-3-yl)-5-phenyl-3H-imidazo[4,5-b]pyridin-3-yl)benzyl)-2-methylpiperazin-1-yl)-1,3,5-triazine-2-carbonitrile]"
5,600 to 10000,"N#Cc1ncccc1C(=O)NC1CCN(Cc2ccc(-n3c(-c4cccnc4N)nc4cccnc43)cc2)CC1 [Example 27, N-(1-(4-(2-(2-Aminopyridin-3-yl)-3H-imidazo[4,5-b]pyridin-3-yl)benzyl)piperidin-4-yl)-2-cyanonicotinamide]"
6,15 to 60,"N#Cc1ccnc(N2CCN(Cc3ccc(-n4c(-c5cccnc5N)nc5ccc(N6CCOCC6)nc54)cc3)CC2)n1 [Example 236, 2-(4-(4-(2-(2-Aminopyridin-3-yl)-5-morpholino-3H-imidazo[4,5-b]pyridin-3-yl)benzyl)piperazin-1-yl)pyrimidine-4-carbonitrile]"
7,< 15,"N#Cc1ncnc(N2CCCC3(CCN(Cc4ccc(-n5c(-c6cccnc6N)nc6ccc(-c7ccccc7)nc65)cc4)CC3)C2)n1 [Example 254, 4-(9-(4-(2-(2-Aminopyridin-3-yl)-5-phenyl-3H-imidazo[4,5-b]pyridin-3-yl)benzyl)-2,9-diazaspiro[5.5]undecan-2-yl)-1,3,5-triazine-2-carbonitrile]"
